Experimental findings from patent US12084472B2 (Ardelyx, Inc., priority 2015, dated 2024) are described below.

A value given as a limit tells only on which side of the number the result lay.

The target in this assay is T1, human TGR5 (Homo sapiens, UniProt Q8TDU6).
T1 construct: expressed in transfected cells; host or cells: HEK293
T1 sequence (Q8TDU6 1-330): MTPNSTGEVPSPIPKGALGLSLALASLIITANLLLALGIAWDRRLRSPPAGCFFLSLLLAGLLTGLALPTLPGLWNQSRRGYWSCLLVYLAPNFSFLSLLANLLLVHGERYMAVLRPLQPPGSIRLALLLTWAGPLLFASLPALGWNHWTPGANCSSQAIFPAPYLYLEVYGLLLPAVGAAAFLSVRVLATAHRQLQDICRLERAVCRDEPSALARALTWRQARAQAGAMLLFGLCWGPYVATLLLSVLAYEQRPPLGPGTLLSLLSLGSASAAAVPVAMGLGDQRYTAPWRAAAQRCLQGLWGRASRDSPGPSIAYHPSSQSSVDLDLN
Briefly: Cell-based TGR5 assay (cAMP generation, HTRF). Conditions: HEK293 cells stably transfected with human TGR5; cAMP by HTRF; 30 minutes at 37° C.; read-out: pEC50 Human TGR5 (converted). The method, boiled down:
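First, compounds in 3-fold serial dilution were placed in HBSS with 10 mM HEPES pH 7.4 and 0.5 mM IBMX. Next, human TGR5-expressing HEK293 cells were added and incubated 30 min at 37° C. Finally, cAMP was detected by HTRF and pEC50 derived by logistic fitting.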
On the technique in general: Time-resolved FRET reads energy transfer from a long-lived donor to a nearby acceptor.
For `Cc1ccc(C(C)CCCN(C)C(=O)[C@@H](O)[C@@H](O)[C@H](O)[C@@H](O)CO)cc1CNC1(c2cnccc2-c2ccccc2OC2CC2)CC1` (stereo partly drawn) [Compound I-301, (2S,3S,4R,5S)-N-(4-{3-[({1-[4-(2-cyclopropoxyphenyl)pyridin-3-yl]cyclopropyl}amino)methyl]-4-methylphenyl}pentyl)-2,3,4,5,6-pentahydroxy-N-methylhexanamide], the EC50 is below 100 nM.
`COCCN(CCCC(C)c1ccc(C)c(CNC2(c3cnccc3-c3ccccc3OC3CC3)CC2)c1)C(=O)[C@@H](O)[C@@H](O)[C@H](O)[C@@H](O)CO` (stereo partly drawn) [Compound I-302, (2S,3S,4R,5S)-N-(4-{3-[({1-[4-(2-cyclopropoxyphenyl)pyridin-3-yl]cyclopropyl}amino)methyl]-4-methylphenyl}pentyl)-2,3,4,5,6-pentahydroxy-N-(2-methoxyethyl)hexanamide]: the EC50 was below 100 nM.
On to `COCCCN(CCCC(C)c1ccc(C)c(CNC2(c3cnccc3-c3ccccc3OC3CC3)CC2)c1)C(=O)[C@@H](O)[C@@H](O)[C@H](O)[C@@H](O)CO` (stereo partly drawn) [Compound I-303, (2S,3S,4R,5S)-N-(4-{3-[({1-[4-(2-cyclopropoxyphenyl)pyridin-3-yl]cyclopropyl}amino)methyl]-4-methylphenyl}pentyl)-2,3,4,5,6-pentahydroxy-N-(3-methoxypropyl)hexanamide], for which the EC50 was below 100 nM.
To `Cc1ccc(C(C)CCCN(C(=O)[C@@H](O)[C@@H](O)[C@H](O)[C@@H](O)CO)C2CCOCC2)cc1CNC1(c2cnccc2-c2ccccc2OC2CC2)CC1` (stereo partly drawn) [Compound I-304, (2S,3S,4R,5S)-N-(4-{3-[({1-[4-(2-cyclopropoxyphenyl)pyridin-3-yl]cyclopropyl}amino)methyl]-4-methylphenyl}pentyl)-2,3,4,5,6-pentahydroxy-N-(oxan-4-yl)hexanamide] belongs below 100 nM; to `Cc1ccc(C(C)CCCN(CCS(C)(=O)=O)C(=O)[C@@H](O)[C@@H](O)[C@H](O)[C@@H](O)CO)cc1CNC1(c2cnccc2-c2ccccc2OC2CC2)CC1` (stereo partly drawn) [Compound I-305, (2S,3S,4R,5S)-N-(4-{3-[({1-[4-(2-cyclopropoxyphenyl)pyridin-3-yl]cyclopropyl}amino)methyl]-4-methylphenyl}pentyl)-2,3,4,5,6-pentahydroxy-N-(2-methanesulfonylethyl) hexanamide], below 100 nM; to `Cc1ccc(C(C)CCCN(C(=O)[C@@H](O)[C@@H](O)[C@H](O)[C@@H](O)CO)C2CCS(=O)(=O)CC2)cc1CNC1(c2cnccc2-c2ccccc2OC2CC2)CC1` (stereo partly drawn) [Compound I-306, (2S,3S,4R,5S)-N-(4-{3-[({1-[4-(2-cyclopropoxyphenyl)pyridin-3-yl]cyclopropyl}amino)methyl]-4-methylphenyl}pentyl)-N-(1,1-dioxo-1λ^6-thian-4-yl)-2,3,4,5,6-pentahydroxyhexanamide], below 100 nM.
To `CCS(=O)(=O)CCN(CCCC(C)c1ccc(C)c(CNC2(c3cnccc3-c3ccccc3OC3CC3)CC2)c1)C(=O)[C@@H](O)[C@@H](O)[C@H](O)[C@@H](O)CO` (stereo partly drawn) [Compound I-307, (2S,3S,4R,5S)-N-(4-{3-[({1-[4-(2-cyclopropoxyphenyl)pyridin-3-yl]cyclopropyl}amino)methyl]-4-methylphenyl}pentyl)-N-[2-(ethanesulfonyl)ethyl]-2,3,4,5,6-pentahydroxyhexanamide] belongs below 100 nM; to `CC(CCCCNC(=O)[C@@H](O)[C@@H](O)[C@H](O)[C@@H](O)CO)c1ccc(Cl)c(COC2(c3cnccc3-c3ccccc3OC3CC3)CC2)c1` (stereo partly drawn) [Compound I-308, (2S,3S,4R,5S)-N-{5-[4-chloro-3-({1-[4-(2-cyclopropoxyphenyl)pyridin-3-yl]cyclopropoxy}methyl)phenyl]hexyl}-2,3,4,5,6-pentahydroxyhexanamide], below 100 nM.
To `CC(CCCN(CCS(C)(=O)=O)C(=O)[C@@H](O)[C@@H](O)[C@H](O)[C@@H](O)CO)c1ccc(Cl)c(COC2(c3cnccc3-c3ccccc3OC3CC3)CC2)c1` (stereo partly drawn) [Compound I-309, (2S,3S,4R,5S)-N-(4-[4-chloro-3-({1-[4-(2-cyclopropoxyphenyl)pyridin-3-yl]cyclopropoxy)methyl)phenyl]pentyl}-2,3,4,5,6-pentahydroxy-N-(2-methanesulfonylethyl)hexanamide] belongs below 100 nM; to `CCS(=O)(=O)CCN(CCCC(C)c1ccc(Cl)c(COC2(c3cnccc3-c3ccccc3OC3CC3)CC2)c1)C(=O)[C@@H](O)[C@@H](O)[C@H](O)[C@@H](O)CO` (stereo partly drawn) [Compound I-310, (2S,3S,4R,5S)-N-{4-[4-chloro-3-({1-[4-(2-cyclopropoxyphenyl)pyridin-3-yl]cyclopropoxy}methyl)phenyl]pentyl}-N-[2-(ethanesulfonyl)ethyl]-2,3,4,5,6-pentahydroxyhexanamide], below 100 nM; to `CC(CCCN(C(=O)[C@@H](O)[C@@H](O)[C@H](O)[C@@H](O)CO)C1CCS(=O)(=O)CC1)c1ccc(Cl)c(COC2(c3cnccc3-c3ccccc3OC3CC3)CC2)c1` (stereo partly drawn) [Compound I-311, (2S,3S,4R,5S)-N-{4-[4-chloro-3-({1-[4-(2-cyclopropoxyphenyl)pyridin-3-yl]cyclopropoxy}methyl)phenyl]pentyl}-N-(1,1-dioxo-1λ^6-thian-4-yl)-2,3,4,5,6-pentahydroxyhexanamide], below 100 nM.
In the case of `Cc1ccc(C(C)CCCCNC(=O)[C@@H](O)[C@@H](O)[C@H](O)[C@@H](O)CO)cc1COC1(c2cnccc2-c2ccccc2OC2CC2)CC1` (stereo partly drawn) [Compound I-312, (2S,3S,4R,5S)-N-{5-[3-({1-[4-(2-cyclopropoxyphenyl)pyridin-3-yl]cyclopropoxy}methyl)-4-methylphenyl]hexyl}-2,3,4,5,6-pentahydroxyhexanamide], the EC50 is below 100 nM.
To `CC(CCCC(=O)N[C@@H](CO)[C@@H](O)[C@H](O)[C@H](O)CO)c1ccc(Cl)c(CNC2(c3cnccc3-c3ccccc3OC3CC3)CC2)c1` (stereo partly drawn) [Compound I-313, 5-{4-chloro-3-[({1-[4-(2-cyclopropoxyphenyl)pyridin-3-yl]cyclopropyl}amino)methyl]phenyl}-N-[(2S,3R,4S,5R)-1,3,4,5,6-pentahydroxyhexan-2-yl]hexanamide] belongs below 100 nM; to `CC(CCCC(=O)NC[C@H](O)[C@@H](O)[C@H](O)[C@H](O)CO)c1ccc(Cl)c(CNC2(c3cnccc3-c3ccccc3OC3CC3)CC2)c1` (stereo partly drawn) [Compound I-316, 5-{4-chloro-3-[({1-[4-(2-cyclopropoxyphenyl)pyridin-3-yl]cyclopropyl}amino)methyl]phenyl}-N-[(2S,3R,4R,5R)-2,3,4,5,6-pentahydroxyhexyl]hexanamide], below 100 nM; to `CC(CCCCC(=O)NC[C@H](O)[C@@H](O)[C@H](O)[C@H](O)CO)c1ccc(Cl)c(CNC2(c3cnccc3-c3ccccc3OC3CC3)CC2)c1` (stereo partly drawn) [Compound I-317, 6-{4-chloro-3-[({1-[4-(2-cyclopropoxyphenyl)pyridin-3-yl]cyclopropyl}amino)methyl]phenyl}-N-[(2S,3R,4R,5R)-2,3,4,5,6-pentahydroxyhexyl]heptanamide], below 100 nM.
For the compound `CC(CCCC(=O)N1CCC(NC[C@H](O)[C@@H](O)[C@H](O)[C@H](O)C(=O)O)CC1)c1ccc(Cl)c(CNC2(c3cnccc3-c3ccccc3OC3CC3)CC2)c1` (stereo partly drawn) [Compound I-318, (2S,3S,4R,5S)-6-{[1-(5-{4-chloro-3-[({1-[4-(2-cyclopropoxyphenyl)pyridin-3-yl]cyclopropyl}amino)methyl]phenyl}hexanoyl)piperidin-4-yl]amino}-2,3,4,5-tetrahydroxyhexanoic acid], the EC50 is below 100 nM.
